Measured values reported in US10815230B2, “Casein kinase 1 delta inhibitor” (ELECTROPHORETICS LIMITED, priority 2015, dated 2020).
Where two headings read alike, the source gives them in different places.

What was measured:
[1] = Pharmacokinetics in male CD-1 mice; type: in vivo; details: for AUCex: percent of AUC0-inf that is extrapolated; for AUC(0-t): male, CD-1, mouse; for AUC(0-t) / bioavailability / Cmax / Tmax / half-life / AUC(0-inf) / clearance / Vd / CL/F / Vd/F: plasma; for bioavailability / Cmax / Tmax / half-life / AUC(0-inf) / clearance / Vd / CL/F / Vd/F: mouse; for bioavailability: read-out: F (oral bioavailability); for AUC(0-inf) / clearance / Vd / CL/F / Vd/F: predicted; for Vd: read-out: Vz; for Vd/F: read-out: Vz/F
Protocol: Six groups of male CD-1 mice of approximately 25-35 g (about 8 weeks of age) were dosed with Comparative compound 324 and Compound A intravenously (IV) (in 10% DMSO:90% Hydroxypropyl-β-cyclodextrin (20% aq. w/v)) or orally (PO) (in 0.5% w/v methylcelluose (aq.) according to the regimen shown in Table 6.
Intravenous doses was administered into a tail vein at a constant dose volume of 5 mL/kg to achieve a dose level of 3 mg/kg. Oral doses were administered as a single bolus dose via syringe with attached polypropylene gavage tube at a constant dose volume of 10 mL/kg to achieve dose levels of 3 mg/kg (groups 2 and 4) and 30 mg/kg (group 3 and 6).
Following dosing, blood samples were collected into individual K3EDTA tubes by cardiac puncture under terminal anaesthesia (isoflurane) from 3 animals per timepoint. Following collection animal were sacrificed by cervical dislocation. Samples were taken at 5, 15 and 30 minutes and then 1, 2, 4, 8 and 24 hours post-IV dose and 15 and 30 minutes and then 1, 2, 4, 8 and 24 hours post-OP dose.
Upon collection, blood samples were centrifuged at 10,000×g, 2 minutes at 4° C. and the resultant plasma was drawn off and stored at −20° C. for analysis by LC-MS/MS of the concentration of the compounds. The remaining blood call pellet was discarded.
Pharmacokinetic parameters were derived by non-compartmental analysis (linear/logarithmic trapezoidal) using WinNonlin (Version 4.1 or higher) software.

TGFBR1 = TGFBR1 (Homo sapiens, UniProt P36897); assay: KINOMEscan binding assay; details: read-out: % Ctrl @ 10000 nM
LATS1 = LATS1 (Homo sapiens, UniProt O95835); assay: KINOMEscan binding assay; details: read-out: % Ctrl @ 10000 nM
HIPK2 = HIPK2 (Homo sapiens, UniProt Q9H2X6); assay: KINOMEscan binding assay; details: read-out: % Ctrl @ 10000 nM
MYO3B = MYO3B (Homo sapiens, UniProt Q8WXR4); assay: KINOMEscan binding assay; details: read-out: % Ctrl @ 10000 nM
TYK2 JH1domain-catalytic = TYK2 JH1domain-catalytic (Homo sapiens, UniProt P29597); assay: KINOMEscan binding assay; details: read-out: % Ctrl @ 10000 nM
CDK5 = CDK5 (Homo sapiens, UniProt Q00535); assay: KINOMEscan binding assay; details: read-out: % Ctrl @ 10000 nM
FLT3 (K663Q) = FLT3 (K663Q) (Homo sapiens, UniProt P36888, K663Q); assay: KINOMEscan binding assay; details: read-out: % Ctrl @ 10000 nM
SgK110 = SgK110 (Homo sapiens, UniProt P0C264); assay: KINOMEscan binding assay; details: read-out: % Ctrl @ 10000 nM
RIOK3 = RIOK3 (Homo sapiens, UniProt O14730); assay: KINOMEscan binding assay; details: read-out: % Ctrl @ 10000 nM
EGFR E746-A750del = EGFR E746-A750del (Homo sapiens, UniProt P00533, DEL746-750); assay: KINOMEscan binding assay; details: read-out: % Ctrl @ 10000 nM
MAK = MAK (Homo sapiens, UniProt P20794); assay: KINOMEscan binding assay; details: read-out: % Ctrl @ 10000 nM
FLT3 (D835Y) = FLT3 (D835Y) (Homo sapiens, UniProt P36888, D835Y); assay: KINOMEscan binding assay; details: read-out: % Ctrl @ 10000 nM
PKNB M. tuberculosis = PKNB M. tuberculosis (Mycobacterium tuberculosis, UniProt P9WI81); assay: biochemical; type: binding; details: read-out: % Ctrl @ 10000 nM
PIK3CA (C420R) = PIK3CA (C420R) (Homo sapiens, UniProt P42336, C420R); assay: KINOMEscan binding assay; details: read-out: % Ctrl @ 10000 nM
[2] = molecular target: RSK3 Kin.Dom.2-C-terminal (Homo sapiens, UniProt Q15349); assay: KINOMEscan binding assay; details: read-out: % Ctrl @ 10000 nM
EPHA2 = EPHA2 (Homo sapiens, UniProt P29317); assay: KINOMEscan binding assay; details: read-out: % Ctrl @ 10000 nM
PKN1 = PKN1 (Homo sapiens, UniProt Q16512); assay: KINOMEscan binding assay; details: read-out: % Ctrl @ 10000 nM
EPHA6 = EPHA6 (Homo sapiens, UniProt Q9UF33); assay: KINOMEscan binding assay; details: read-out: % Ctrl @ 10000 nM
PIP5K2C = PIP5K2C (Homo sapiens, UniProt Q8TBX8); assay: KINOMEscan binding assay; details: read-out: % Ctrl @ 10000 nM
MAPKAPK5 = molecular target: T1, MAPKAPK5 (Homo sapiens, UniProt Q8IW41); assay: KINOMEscan binding assay; details: read-out: % Ctrl @ 10000 nM
T1 construct: T7 phage fusion (most assays) or DNA label after HEK293 expression; purchased DiscoveRx (KINOMEscan, LeadHunter Discovery services); host or cells: T7 phage in E. coli (BL21-derived) or HEK293

TLK2 = TLK2 (Homo sapiens, UniProt Q86UE8); assay: KINOMEscan binding assay; details: read-out: % Ctrl @ 10000 nM
RIOK1 = RIOK1 (Homo sapiens, UniProt Q9BRS2); assay: KINOMEscan binding assay; details: read-out: % Ctrl @ 10000 nM
PAK7 = PAK7 (Homo sapiens, UniProt Q9P286); assay: KINOMEscan binding assay; details: read-out: % Ctrl @ 10000 nM
CAMK2D = CAMK2D (Homo sapiens, UniProt Q13557); assay: KINOMEscan binding assay; details: read-out: % Ctrl @ 10000 nM
PAK2 = PAK2 (Homo sapiens, UniProt Q13177); assay: KINOMEscan binding assay; details: read-out: % Ctrl @ 10000 nM
[3] = molecular target: RPS6KA5 Kin.Dom.2-C-terminal (Homo sapiens, UniProt O75582); assay: KINOMEscan binding assay; details: read-out: % Ctrl @ 10000 nM
[4] = iv, 3 mg/kg, IV 3 mg/kg, male CD-1 mice, read-out: AUC0-24 h
[5] = iv, 3 mg/kg, IV 3 mg/kg, male CD-1 mice, read-out: AUC0-t
[6] = po, 3 mg/kg, PO 3 mg/kg, male CD-1 mice, read-out: AUC0-24 h
[7] = po, 3 mg/kg, PO 3 mg/kg, male CD-1 mice, read-out: AUC0-t
[8] = po, 30 mg/kg, PO 30 mg/kg, male CD-1 mice, read-out: AUC0-24 h
[9] = po, 30 mg/kg, PO 30 mg/kg, male CD-1 mice, read-out: AUC0-t

Chain of TYK2 JH1domain-catalytic (P29597 897-1176 limits assumed): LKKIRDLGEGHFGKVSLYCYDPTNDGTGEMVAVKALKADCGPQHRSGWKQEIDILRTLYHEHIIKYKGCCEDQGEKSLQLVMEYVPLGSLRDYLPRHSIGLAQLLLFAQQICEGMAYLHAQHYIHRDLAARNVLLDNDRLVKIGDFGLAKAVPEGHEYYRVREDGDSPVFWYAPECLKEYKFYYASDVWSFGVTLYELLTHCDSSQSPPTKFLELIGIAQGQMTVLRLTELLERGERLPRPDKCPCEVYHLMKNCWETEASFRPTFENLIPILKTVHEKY
Chain of RIOK1 (Q9BRS2 whole entry): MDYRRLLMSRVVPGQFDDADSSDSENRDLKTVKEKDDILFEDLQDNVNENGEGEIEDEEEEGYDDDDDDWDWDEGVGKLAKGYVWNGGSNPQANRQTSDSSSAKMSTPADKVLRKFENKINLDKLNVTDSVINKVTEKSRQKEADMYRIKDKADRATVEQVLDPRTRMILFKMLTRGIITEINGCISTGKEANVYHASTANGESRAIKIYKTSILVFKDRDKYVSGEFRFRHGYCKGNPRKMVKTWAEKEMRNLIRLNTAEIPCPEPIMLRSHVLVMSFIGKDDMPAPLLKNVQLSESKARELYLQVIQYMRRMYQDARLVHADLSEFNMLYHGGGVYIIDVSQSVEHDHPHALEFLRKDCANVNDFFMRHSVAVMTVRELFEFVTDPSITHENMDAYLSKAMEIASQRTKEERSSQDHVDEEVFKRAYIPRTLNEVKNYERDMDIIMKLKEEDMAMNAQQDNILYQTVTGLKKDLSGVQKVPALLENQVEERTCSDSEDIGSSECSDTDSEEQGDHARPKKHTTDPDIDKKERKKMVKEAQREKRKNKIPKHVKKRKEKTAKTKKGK
Chain of SgK110 (P0C264 whole entry): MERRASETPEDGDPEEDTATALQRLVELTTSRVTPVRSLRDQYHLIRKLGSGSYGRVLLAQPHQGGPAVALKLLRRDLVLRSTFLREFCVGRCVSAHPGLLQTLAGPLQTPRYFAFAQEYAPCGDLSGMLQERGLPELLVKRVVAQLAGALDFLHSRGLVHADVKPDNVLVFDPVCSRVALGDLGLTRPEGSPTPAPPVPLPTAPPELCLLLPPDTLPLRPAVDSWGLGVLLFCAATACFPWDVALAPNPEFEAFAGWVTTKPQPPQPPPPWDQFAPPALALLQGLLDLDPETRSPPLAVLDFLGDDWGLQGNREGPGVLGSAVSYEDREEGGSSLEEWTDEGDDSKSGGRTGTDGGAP
Chain of RIOK3 (O14730 whole entry): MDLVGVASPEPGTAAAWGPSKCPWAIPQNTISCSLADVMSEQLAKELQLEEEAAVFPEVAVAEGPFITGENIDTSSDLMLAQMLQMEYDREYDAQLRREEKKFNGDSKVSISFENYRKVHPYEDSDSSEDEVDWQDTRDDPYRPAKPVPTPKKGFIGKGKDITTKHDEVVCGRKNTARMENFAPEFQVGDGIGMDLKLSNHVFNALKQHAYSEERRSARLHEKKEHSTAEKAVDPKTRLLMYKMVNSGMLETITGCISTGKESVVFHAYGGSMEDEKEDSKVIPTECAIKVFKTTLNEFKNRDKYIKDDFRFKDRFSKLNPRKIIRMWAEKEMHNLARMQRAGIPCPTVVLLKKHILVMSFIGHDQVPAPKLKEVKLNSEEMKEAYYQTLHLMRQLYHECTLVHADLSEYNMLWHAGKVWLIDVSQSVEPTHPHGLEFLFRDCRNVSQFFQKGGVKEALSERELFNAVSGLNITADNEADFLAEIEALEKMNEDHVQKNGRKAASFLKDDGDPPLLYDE
Chain of EPHA2 (P29317 24-976): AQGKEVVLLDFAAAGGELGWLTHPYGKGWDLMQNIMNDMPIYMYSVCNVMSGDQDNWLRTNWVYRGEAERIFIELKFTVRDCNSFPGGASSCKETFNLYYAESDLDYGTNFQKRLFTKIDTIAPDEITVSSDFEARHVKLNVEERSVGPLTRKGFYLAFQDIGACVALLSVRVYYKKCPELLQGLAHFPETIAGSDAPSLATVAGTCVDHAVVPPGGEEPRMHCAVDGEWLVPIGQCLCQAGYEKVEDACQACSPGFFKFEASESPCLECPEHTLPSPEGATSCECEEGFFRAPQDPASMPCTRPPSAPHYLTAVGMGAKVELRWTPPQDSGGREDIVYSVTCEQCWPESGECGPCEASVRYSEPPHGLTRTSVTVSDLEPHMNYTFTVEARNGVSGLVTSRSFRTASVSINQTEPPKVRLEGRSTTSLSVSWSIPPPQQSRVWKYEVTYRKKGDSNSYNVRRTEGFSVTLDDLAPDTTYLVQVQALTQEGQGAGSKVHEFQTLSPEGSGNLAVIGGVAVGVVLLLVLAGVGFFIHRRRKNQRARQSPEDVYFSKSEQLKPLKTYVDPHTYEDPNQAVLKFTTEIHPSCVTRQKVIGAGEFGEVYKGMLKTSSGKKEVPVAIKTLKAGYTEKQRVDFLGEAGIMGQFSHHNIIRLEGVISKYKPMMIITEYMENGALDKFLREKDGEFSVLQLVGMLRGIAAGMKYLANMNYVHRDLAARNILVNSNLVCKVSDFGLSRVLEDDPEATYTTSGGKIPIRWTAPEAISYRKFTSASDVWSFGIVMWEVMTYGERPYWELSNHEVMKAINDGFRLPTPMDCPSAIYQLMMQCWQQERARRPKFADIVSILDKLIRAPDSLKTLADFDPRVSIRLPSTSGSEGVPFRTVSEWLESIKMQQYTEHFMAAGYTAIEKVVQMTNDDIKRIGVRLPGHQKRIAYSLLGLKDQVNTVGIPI
Chain of TGFBR1 (P36897 34-503): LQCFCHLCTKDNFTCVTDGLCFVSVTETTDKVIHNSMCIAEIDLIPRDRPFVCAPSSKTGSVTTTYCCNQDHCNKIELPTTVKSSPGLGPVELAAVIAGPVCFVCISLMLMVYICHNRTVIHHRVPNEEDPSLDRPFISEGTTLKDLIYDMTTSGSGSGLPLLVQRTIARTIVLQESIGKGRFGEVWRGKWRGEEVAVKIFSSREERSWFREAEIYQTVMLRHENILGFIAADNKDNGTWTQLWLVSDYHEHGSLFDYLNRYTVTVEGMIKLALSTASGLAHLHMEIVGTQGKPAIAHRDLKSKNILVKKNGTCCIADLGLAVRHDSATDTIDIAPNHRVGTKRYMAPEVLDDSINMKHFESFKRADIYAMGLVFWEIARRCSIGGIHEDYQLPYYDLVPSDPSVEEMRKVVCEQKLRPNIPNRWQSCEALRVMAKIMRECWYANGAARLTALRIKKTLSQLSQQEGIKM
T1 sequence (Q8IW41 whole entry, the tested form may be a part): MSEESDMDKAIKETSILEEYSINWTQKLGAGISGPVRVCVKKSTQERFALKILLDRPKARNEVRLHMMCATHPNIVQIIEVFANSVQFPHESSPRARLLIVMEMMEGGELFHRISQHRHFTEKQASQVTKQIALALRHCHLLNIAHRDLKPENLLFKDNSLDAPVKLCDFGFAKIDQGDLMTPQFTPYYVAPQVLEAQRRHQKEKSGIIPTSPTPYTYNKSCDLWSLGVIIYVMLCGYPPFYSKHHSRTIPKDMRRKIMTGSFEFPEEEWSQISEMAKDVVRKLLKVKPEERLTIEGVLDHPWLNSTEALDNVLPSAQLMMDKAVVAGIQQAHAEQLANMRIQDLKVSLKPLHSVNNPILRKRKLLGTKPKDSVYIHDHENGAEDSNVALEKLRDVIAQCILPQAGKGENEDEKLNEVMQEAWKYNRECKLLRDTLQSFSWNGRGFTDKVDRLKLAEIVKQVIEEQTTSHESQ
Chain of TLK2 (Q86UE8 whole entry): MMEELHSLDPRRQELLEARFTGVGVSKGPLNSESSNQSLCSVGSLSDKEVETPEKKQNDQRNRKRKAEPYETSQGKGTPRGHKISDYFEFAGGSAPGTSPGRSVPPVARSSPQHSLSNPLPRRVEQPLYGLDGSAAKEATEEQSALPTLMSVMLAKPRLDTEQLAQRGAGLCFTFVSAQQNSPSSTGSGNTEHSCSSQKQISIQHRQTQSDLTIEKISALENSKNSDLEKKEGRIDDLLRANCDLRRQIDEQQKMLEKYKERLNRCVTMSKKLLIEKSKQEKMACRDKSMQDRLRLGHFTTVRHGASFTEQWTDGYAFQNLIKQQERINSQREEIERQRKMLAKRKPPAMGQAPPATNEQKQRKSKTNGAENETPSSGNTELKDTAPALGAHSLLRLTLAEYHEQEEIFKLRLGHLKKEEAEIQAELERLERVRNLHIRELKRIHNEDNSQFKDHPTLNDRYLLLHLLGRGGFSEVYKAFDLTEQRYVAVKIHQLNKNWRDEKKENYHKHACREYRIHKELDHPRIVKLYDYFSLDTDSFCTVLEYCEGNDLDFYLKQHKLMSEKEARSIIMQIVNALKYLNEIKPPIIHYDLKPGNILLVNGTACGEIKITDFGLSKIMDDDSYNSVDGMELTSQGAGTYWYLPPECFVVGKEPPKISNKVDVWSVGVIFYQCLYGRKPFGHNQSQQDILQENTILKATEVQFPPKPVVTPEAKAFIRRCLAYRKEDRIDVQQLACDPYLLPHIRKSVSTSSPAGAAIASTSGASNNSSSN
Chain of MAK (P20794 whole entry): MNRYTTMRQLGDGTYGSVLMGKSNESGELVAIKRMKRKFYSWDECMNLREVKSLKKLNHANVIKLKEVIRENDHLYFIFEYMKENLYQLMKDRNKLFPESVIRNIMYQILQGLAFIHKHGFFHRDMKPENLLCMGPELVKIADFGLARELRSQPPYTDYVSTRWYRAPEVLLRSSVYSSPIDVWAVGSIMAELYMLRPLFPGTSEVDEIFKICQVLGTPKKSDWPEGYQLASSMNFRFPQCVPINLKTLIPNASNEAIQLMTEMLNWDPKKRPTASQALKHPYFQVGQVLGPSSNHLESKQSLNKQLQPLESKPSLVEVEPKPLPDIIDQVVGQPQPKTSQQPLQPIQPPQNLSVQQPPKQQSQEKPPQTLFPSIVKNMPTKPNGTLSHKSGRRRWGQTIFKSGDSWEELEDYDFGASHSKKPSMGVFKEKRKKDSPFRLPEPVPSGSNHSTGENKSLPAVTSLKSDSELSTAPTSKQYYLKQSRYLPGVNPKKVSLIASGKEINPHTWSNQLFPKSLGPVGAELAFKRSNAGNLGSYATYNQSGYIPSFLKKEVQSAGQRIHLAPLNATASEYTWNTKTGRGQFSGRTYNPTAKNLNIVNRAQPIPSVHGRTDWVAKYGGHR

## Nc1ncc(-c2nc3ccccc3o2)c(-c2ccncc2)n1 [Comparative Compound 324, 5-(1,3-benzoxazol-2-yl)-4-(pyridine-4-yl)pyrimidin-2-amine]
[1]; IV 3 mg/kg
  AUCex: 1.9%
[1]; [4]
  AUC(0-t): 315 ng·h/mL
[1]; [5]
  AUC(0-t): 304 ng·h/mL
[1]; [6]
  AUC(0-t): 11.1 ng·h/mL
[1]; [7]
  AUC(0-t): 8.66 ng·h/mL
[1]; [8]
  AUC(0-t): 1590 ng·h/mL
[1]; [9]
  AUC(0-t): 1210 ng·h/mL
[1]; PO 3 mg/kg, male CD-1 mice
  bioavailability: 3%
  Cmax: 14 ng/mL
  Tmax: 15 min
[1]; PO 30 mg/kg, male CD-1 mice
  bioavailability: 40%
  Cmax: 666 ng/mL
  Tmax: 30 min
[1]; IV 3 mg/kg, male CD-1 mice
  Cmax: 1150 ng/mL
  Tmax: 4.98 min
  half-life: 5.46 min
  AUC(0-inf): 309 ng·h/mL
  clearance: 162 mL/min/kg
  Vd: 1.27 L/kg
TGFBR1
  remaining binding at 10 µM: 94%
LATS1
  remaining binding at 10 µM: 100%
HIPK2
  remaining binding at 10 µM: 67%
MYO3B
  remaining binding at 10 µM: 100%
TYK2 JH1domain-catalytic
  remaining binding at 10 µM: 86%
CDK5
  remaining binding at 10 µM: 100%
FLT3 (K663Q)
  remaining binding at 10 µM: 100%
SgK110
  remaining binding at 10 µM: 94%
RIOK3
  remaining binding at 10 µM: 57%
EGFR E746-A750del
  remaining binding at 10 µM: 80%
MAK
  remaining binding at 10 µM: 86%
FLT3 (D835Y)
  remaining binding at 10 µM: 90%
PKNB M. tuberculosis
  remaining activity at 10 µM: 74%
PIK3CA (C420R)
  remaining binding at 10 µM: 99%
[2]
  remaining binding at 10 µM: 100%
EPHA2
  remaining binding at 10 µM: 98%
PKN1
  remaining binding at 10 µM: 100%
EPHA6
  remaining binding at 10 µM: 100%
PIP5K2C
  remaining binding at 10 µM: 72%
MAPKAPK5
  remaining binding at 10 µM: 100%
TLK2
  remaining binding at 10 µM: 100%
RIOK1
  remaining binding at 10 µM: 100%
PAK7
  remaining binding at 10 µM: 96%
CAMK2D
  remaining binding at 10 µM: 99%
PAK2
  remaining binding at 10 µM: 92%
[3]
  remaining binding at 10 µM: 96%

## CNc1c(C(N)=O)c2ccccn2c1C(=O)c1ccc(F)cc1 [Compound A, 2-methyl-amino-3-[(4-fluorophenyl)carbonyl]indolizine-1-carboxamide]
[1]; IV 3 mg/kg
  AUCex: 0.1%
[1]; PO 3 mg/kg
  AUCex: 6.3%
[1]; PO 30 mg/kg
  AUCex: 18.5%
[1]; male CD-1 mice, 24 hours after administration
  clearance after administration: completely cleared after 24 hours
[1]; [4]
  AUC(0-t): 502 ng·h/mL
[1]; [5]
  AUC(0-t): 498 ng·h/mL
[1]; [6]
  AUC(0-t): 35.4 ng·h/mL
[1]; [7]
  AUC(0-t): 32.4 ng·h/mL
[1]; [8]
  AUC(0-t): 659 ng·h/mL
[1]; [9]
  AUC(0-t): 470 ng·h/mL
[1]; PO 3 mg/kg, male CD-1 mice
  bioavailability: 7%
  Cmax: 47 ng/mL
  Tmax: 15 min
  half-life: 29.4 min
  AUC(0-inf): 34.6 ng·h/mL
  CL/F: 1450 mL/min/kg
  Vd/F: 61.4 L/kg
[1]; PO 30 mg/kg, male CD-1 mice
  bioavailability: 9%
  Cmax: 237 ng/mL
  Tmax: 30 min
  half-life: 210 min
  AUC(0-inf): 576 ng·h/mL
  CL/F: 868 mL/min/kg
  Vd/F: 264 L/kg
[1]; IV 3 mg/kg, male CD-1 mice
  Cmax: 1680 ng/mL
  Tmax: 4.98 min
  half-life: 13.8 min
  AUC(0-inf): 499 ng·h/mL
  clearance: 100 mL/min/kg
  Vd: 2 L/kg
TGFBR1
  remaining binding at 10 µM: 92%
LATS1
  remaining binding at 10 µM: 93%
HIPK2
  remaining binding at 10 µM: 74%
MYO3B
  remaining binding at 10 µM: 100%
TYK2 JH1domain-catalytic
  remaining binding at 10 µM: 71%
CDK5
  remaining binding at 10 µM: 81%
FLT3 (K663Q)
  remaining binding at 10 µM: 99%
SgK110
  remaining binding at 10 µM: 92%
RIOK3
  remaining binding at 10 µM: 72%
EGFR E746-A750del
  remaining binding at 10 µM: 25%
MAK
  remaining binding at 10 µM: 59%
FLT3 (D835Y)
  remaining binding at 10 µM: 94%
PKNB M. tuberculosis
  remaining activity at 10 µM: 86%
PIK3CA (C420R)
  remaining binding at 10 µM: 94%
[2]
  remaining binding at 10 µM: 68%
EPHA2
  remaining binding at 10 µM: 70%
PKN1
  remaining binding at 10 µM: 88%
EPHA6
  remaining binding at 10 µM: 96%
PIP5K2C
  remaining binding at 10 µM: 79%
MAPKAPK5
  remaining binding at 10 µM: 100%
TLK2
  remaining binding at 10 µM: 94%
RIOK1
  remaining binding at 10 µM: 100%
PAK7
  remaining binding at 10 µM: 96%
CAMK2D
  remaining binding at 10 µM: 78%
PAK2
  remaining binding at 10 µM: 79%
[3]
  remaining binding at 10 µM: 88%
